Holding throughout (type): cell-based
For experiment [1], the system named is M. hyorhinis BTS-7, NCTC10130. As to the kind of experiment: Anti-mycoplasma MIC. Particulars: Mesomycoplasma hyorhinis. Here is the method: (§1) The antimycoplasma activity was quantified using the […]. Retapamulin was used as a positive control to test the minimum inhibitory concentration of 3H-imidazo[4,5-C]pyridine pleuromutilin onium salt derivatives.
(§2) (1) Preparation of KM2 medium: Weigh 38.9 g of KM2 medium, add it to 800 mL of distilled water, boil to dissolve, sterilize under high pressure at 115° C. for 20 min, and set aside.
(§3) (2) Preparation of bacterial stock solution: Take 0.5 mL of Mhp-J^a, Mhp-LH^b, Mhr-BTS-7^c, MG-R^d, MS-WVU1853^e, MP-M129^f, CP-AR-39^g, CP-CWL-029^h, CP-TW-183^i, MH-PG-21^j, MG-G37^k cultured to the logarithmic phase and transfer it to 4.5 mL of KM2 liquid culture medium. When the culture medium turns yellow, divide each bacterium into 0.5 mL per tube and store it at −70° C. as bacterial stock solution.
(§4) (3) Determination of bacterial titer (color change unit, CCU): Take out the bacterial stock solution stored at −70° C., melt and balance to room temperature, add 0.18 mL KM2 medium to each well of the middle 4 rows of the 96-well plate (i.e. 4 parallels), take 0.02 mL and add it to the first column, dilute 10 times to 10^−11, and set up a negative control containing only KM2 medium (12th column). After sealing, put it in a 37° C. incubator and observe the results every day. The highest dilution at which the color of the medium changes is the CCU/mL of the strain.
(§5) Take an appropriate amount of seed bacterial solution and dilute it to 10^4 CCU/mL in turn according to its titer. Add drugs of each dilution in a 96-well plate in turn, and then add an equal amount of diluted bacterial solution. Set 200 μL of diluted mycoplasma bacterial solution as a positive control, 200 μL of KM2 liquid culture medium as a negative control, and set a solvent control group (10 μL of drug solvent+190 μL of mycoplasma bacterial solution). Each experiment is set up in 3 parallels. After all culture plates are sealed, they are cultured at 37° C., observed daily, and the final MIC value is recorded.

Experiment [2] concerns M. pneumoniae M129, ATCC29342. As to the kind of experiment: Anti-mycoplasma MIC. Particulars: Mycoplasmoides pneumoniae. Here is the method:
as §1, §2, §3, §4, §5

Experiment [3] has as its system M. hyopneumoniae J, NCTC10110. As to the kind of experiment: Anti-mycoplasma MIC. Particulars: Mesomycoplasma hyopneumoniae. Here is the method:
as §1, §2, §3, §4, §5

Experiment [4] concerns C. pneumoniae TW183, VR-2282. As to the kind of experiment: Anti-mycoplasma MIC. The conditions noted are these: Chlamydia pneumoniae, read-out: Antimycoplasma activity (MIC) CP-TW-183^i. Here is the method: as §1, §2, §3, §4, §5
The test system of experiment [5] is M. hominis PG-21, ATCC23114. As to the kind of experiment: Anti-mycoplasma MIC. The conditions noted are these: Metamycoplasma hominis. Here is the method:
as §1, §2, §3, §4, §5

In experiment [6] the test system is M. genitalium G37, ATCC33530. As to the kind of experiment: Anti-mycoplasma MIC. The conditions noted are these: Mycoplasmoides genitalium. Here is the method: as §1, §2, §3, §4, §5
Experiment [7] deals with C. pneumoniae AR39, ATCC53592. As to the kind of experiment: Anti-mycoplasma MIC. Particulars: Chlamydia pneumoniae. Here is the method: as §1, §2, §3, §4, §5
The test system of experiment [8] is M. galliscepticum, NCTC10115. As to the kind of experiment: Anti-mycoplasma MIC. Particulars: read-out: Antimycoplasma activity (MIC) MG-R^d. Here is the method: as §1, §2, §3, §4, §5
Experiment [9] concerns M. synoviae WVU1853, NCTC10124. As to the kind of experiment: Anti-mycoplasma MIC. The conditions noted are these: Mycoplasmopsis synoviae. Here is the method: as §1, §2, §3, §4, §5
Experiment [10] deals with Methicillin-resistant S. epidermidis ATCC 51625. As to the kind of experiment: MIC, broth microdilution. Particulars: Staphylococcus epidermidis, ATCC 51625 / MRSE, read-out: Minimum inhibitory concentration MRSE^e. The method, boiled down: (§6)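 Broth microdilution in Mueller–Hinton broth: compounds two-fold serially diluted from a 2560 μg/mL stock (1% DMSO), inoculum 5×10^5 CFU/mL final from log-phase cultures, incubation 37 °C for 24 h. MIC taken as the lowest concentration inhibiting growth.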

The next experiment concerns E.coli CMCC 44103. As to the kind of experiment: MIC, broth microdilution. The conditions noted are these: Escherichia coli. The method, boiled down:
as §6
(In broth dilution the organism is exposed to a series of concentrations in liquid medium.)

Values after ≈ are worked out from the molar mass of the structure shown. Like-named read-outs stand apart in the source and are kept apart here.

For the compound `C=C[C@]1(C)C[C@@H](OC(=O)CSc2nc3cc[n+](Cc4ccc(C)cc4)cc3[nH]2)[C@]2(C)[C@H](C)CC[C@]3(CCC(=O)[C@H]32)[C@@H](C)[C@@H]1O` [Compound i, 5-(4-methylbenzyl)-2-((2-(((3aR,4R,5R,7S,8S,9R,9aS,12R)-8-hydroxy-4,7,9,12-tetramethyl-3-oxo-7-vinyldecahydro-4,9a-propancyclopenta[8]cyclo-5-yl)oxy)-2-oxoethyl)thio)-3H-imidazo[4,5-C]pyridine-5-ium], the MIC is 0.03 µg/mL in experiment [1] (NCTC10130, M. hyorhinis BTS-7, read-out: Antimycoplasma activity (MIC) Mhr-BTS-7^c); 0.008 µg/mL in experiment [2] (ATCC29342, M. pneumoniae M129, read-out: Antimycoplasma activity (MIC) MP-M129^f); 0.02 µg/mL in experiment [3] (NCTC10110, M. hyopneumoniae J, read-out: Antimycoplasma activity (MIC) Mhp-J^a); 0.01 µg/mL in experiment [4] (C. pneumoniae TW183); 0.015 µg/mL in [5] (ATCC23114, M. hominis PG-21, read-out: Antimycoplasma activity (MIC) MH-PG-21^j); 0.03 µg/mL in experiment [6] (ATCC33530, M. genitalium G37, read-out: Antimycoplasma activity (MIC) MG-G37^k). In addition, the MIC is 0.002 µg/mL in [7] (ATCC53592, C. pneumoniae AR39, read-out: Antimycoplasma activity (MIC) CP-AR-39^g); 0.04 µg/mL in [8] (M. galliscepticum); 0.015 µg/mL in experiment [9] (NCTC10124, M. synoviae WVU1853, read-out: Antimycoplasma activity (MIC) MS-WVU1853^e); 0.0625 µg/mL in [10] (Methicillin-resistant S. epidermidis ATCC 51625); 0.125 µg/mL in the experiment with E.coli CMCC 44103 (CMCC44103, E.coli CMCC 44103, read-out: Minimum inhibitory concentration E.c.^i).

Consider `C=C[C@]1(C)C[C@@H](OC(=O)CS[C@@H]2C[C@H]3CC[C@@H](C2)N3C)[C@]2(C)[C@H](C)CC[C@]3(CCC(=O)[C@H]32)[C@@H](C)[C@@H]1O` [Retapamulin, reference compound], for which the MIC came out at 0.03 µg/mL (≈ 0.0579 µM) in experiment [1] (NCTC10130, read-out: Antimycoplasma activity (MIC) Mhr-BTS-7^c); 0.015 µg/mL (≈ 0.029 µM) in experiment [2] (ATCC29342, read-out: Antimycoplasma activity (MIC) MP-M129^f); 0.03 µg/mL (≈ 0.0579 µM) in experiment [3] (NCTC10110, read-out: Antimycoplasma activity (MIC) Mhp-J^a); 0.03 µg/mL (≈ 0.0579 µM) in experiment [4]; 0.25 µg/mL (≈ 0.483 µM) in experiment [5] (ATCC23114, read-out: Antimycoplasma activity (MIC) MH-PG-21^j); 0.03 µg/mL (≈ 0.0579 µM) in experiment [6] (ATCC33530, read-out: Antimycoplasma activity (MIC) MG-G37^k). Besides, the MIC in experiment [7] (ATCC53592, read-out: Antimycoplasma activity (MIC) CP-AR-39^g) turned out to be 0.125 µg/mL (≈ 0.241 µM); in experiment [8], 0.125 µg/mL (≈ 0.241 µM); in [9] (NCTC10124, read-out: Antimycoplasma activity (MIC) MS-WVU1853^e), 2 µg/mL (≈ 3.86 µM); in experiment [10], 32 µg/mL (≈ 61.8 µM); with E.coli CMCC 44103 (CMCC44103, read-out: Minimum inhibitory concentration E.c.^i), 32 µg/mL (≈ 61.8 µM).

The record behind these values is US12275734B1, “Pleuromutilin onium salt derivative containing a 3H-imidazo[4,5-c]pyridine side chain, and a preparation method and application thereof” (SHAANXI UNIVERSITY OF SCIENCE AND TECHNOLOGY, priority 2024, dated 2025).
